According to patent US20200101103A1, “REINFORCEMENT OF MUCUS BARRIER PROPERTIES” (CIRQLE BIOMEDICAL CONTRACEPTION IVS, priority 2017, published 2020):

Tested on: purified porcine gastric mucin
Assay: Effect of muco-adhesive amino acid polymers on mucin gels (light microscopy)
Conditions: 5 mg/mL polymer, 4 μl mucin drop, 3 min to 50 min of contact
Method: (§1) FIG. 7 illustrates the effect of low or high molecular weight muco-adhesive polymers on mucin gels. A 4 μl drop of purified porcine gastric mucin was placed in a solution of poly-L-arginine (PLA, DP 11 corresponding to 1.9 kDa, 5 mg/mL), poly-L-lysine (PLL, DP 11 corresponding to 1.6 kDa, 5 mg/mL), or poly-L-lysine (PLL, DP 400 corresponding to 66 kDa, 5 mg/mL). The drop of mucin was observed under the microscope (10x objective). The three images are taken after 3 min, 12 min 30, and 50 min of contact.
as §1, with “Effect” for “FIG. 7 illustrates the effect”, “(PLA,” for “(PLA, DP 11 corresponding to”, “(PLL,” for “(PLL, DP 11 corresponding to”, “(PLL,” for “(PLL, DP 400 corresponding to”, “(10×” for “(10x”

Substance	effect on mucin gel drop
poly-L-lysine [PLL, 66 kDa, reference compound]	changes the structure of the mucins drop and compacts it significantly
poly-L-arginine [PLA, 1.9 kDa]	clearly crosslinks the mucin in depth
poly-L-lysine [PLL, 1.6 kDa]	clearly crosslinks the mucin in depth
